Measurements published in patent US20050074829A1, “Methods for identifying inhibitors of sterol 14-alpha-demethylase” (priority 2003, published 2005).

What was measured:
[1] = target: T1, OBT-DM (Arabidopsis thaliana, UniProt Q9SAA9); settings: for wavelength of maximum absorbance in difference spectrum / wavelength of minimum absorbance in difference spectrum: 0.25 mg/ml OBT-DM in 50 mM HEPES pH 7.2, 1 μL of 1 mM inhibitor added, spectrum 300-500 nm
T1 sequence (Q9SAA9 35-488): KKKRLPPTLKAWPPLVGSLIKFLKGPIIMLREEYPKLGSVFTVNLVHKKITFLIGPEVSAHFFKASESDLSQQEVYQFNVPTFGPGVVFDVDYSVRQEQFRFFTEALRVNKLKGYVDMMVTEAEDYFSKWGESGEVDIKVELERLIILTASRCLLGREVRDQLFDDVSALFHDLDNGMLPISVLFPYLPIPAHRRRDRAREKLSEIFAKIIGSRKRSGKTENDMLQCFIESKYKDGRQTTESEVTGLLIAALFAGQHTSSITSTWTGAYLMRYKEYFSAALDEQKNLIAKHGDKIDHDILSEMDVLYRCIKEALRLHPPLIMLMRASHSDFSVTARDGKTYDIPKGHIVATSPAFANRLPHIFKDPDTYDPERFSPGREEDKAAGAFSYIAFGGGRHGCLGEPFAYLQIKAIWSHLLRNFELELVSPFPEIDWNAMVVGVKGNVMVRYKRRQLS
Procedure: An OBT-DM solution (0.25 mg/ml) in 50 mM HEPES, pH 7.2, was placed in a micro-quartz cuvette with 1 cm path length. The solution was used to blank a Hewlett Packard 8453 spectrometer. Then 1 μL of a 1 mM solution of type II inhibitor in 50% (v/v) DMSO ethanol was added and the spectrum was acquired between the 300 and 500 nm region.

[2] = target: T1, OBT-DM; test: 384-well assay for identification of inhibitors of OBT-DM, read at 413 nm with 432 nm as reference; assay type: binding; design: made in house; host or cells: E. coli Rosetta DE3 pLysS; settings: 10 μM compound, 0.4 mg/ml OBT-DM, 20 min room temperature; negative control wells 0.09-0.12
Procedure: The assay was performed using 0.4 mg/ml OBTDM in 50 mM HEPES, pH 7.2, and 0.01% Tween 20 in all wells plus 10 μM Ketoconazole (positive control) in 50 mM HEPES, pH 7.2, and 0.01% Tween 20 in plate rows A-H; 10 μM compounds numbered 1-24 in 50 mM HEPES, pH 7.2, and 0.01% Tween 20 in row I; and 50 mM HEPES, pH 7.2, and 0.01% Tween 20 in rows K-P (negative control).
The assay was set up in a 384-well plate format and initiated by the addition of 40 μl of 20 μM Ketoconazole (ICN Biomedicals, Inc., Irvine, Calif.) in 50 mM HEPES, pH 7.2, 0.01% Tween 20, to rows A-H to a final concentration of 10 μM (positive control) and 40 μl of 50 mM HEPES, pH 7.2, 0.01% Tween 20, to rows K-P (negative control). Test compounds were added to a concentration of 10 μM in row I by manual addition of 40 μl of a 20 μM solution (compounds assigned numbers from 1-24). Then 40 μl of an 0.8 mg/ml solution of OBT-DM protein in 50 mM HEPES, pH 7.2, 0.01% Tween 20 (from Example 2) was added to all wells to a final concentration of 0.4 mg/ml via multidrop.

[3] = target: T2, OBT-DM (Arabidopsis thaliana, UniProt Q9SAA9); test: Equilibrium inhibitory constant for OBT-DM (no method given); assay type: binding
T2 sequence (Q9SAA9 1-488): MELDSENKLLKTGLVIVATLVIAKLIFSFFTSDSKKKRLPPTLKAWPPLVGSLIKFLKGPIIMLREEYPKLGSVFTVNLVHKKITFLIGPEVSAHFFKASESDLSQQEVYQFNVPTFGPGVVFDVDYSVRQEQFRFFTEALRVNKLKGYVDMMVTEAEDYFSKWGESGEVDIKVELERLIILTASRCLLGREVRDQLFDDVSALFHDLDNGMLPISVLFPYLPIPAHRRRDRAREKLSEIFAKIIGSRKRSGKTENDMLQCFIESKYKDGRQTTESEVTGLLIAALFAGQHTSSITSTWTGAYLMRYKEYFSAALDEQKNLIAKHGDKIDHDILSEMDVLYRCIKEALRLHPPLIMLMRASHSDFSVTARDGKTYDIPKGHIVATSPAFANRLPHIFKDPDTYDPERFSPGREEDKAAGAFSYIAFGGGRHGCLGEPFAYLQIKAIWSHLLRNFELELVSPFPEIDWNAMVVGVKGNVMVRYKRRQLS

Compound	wavelength of maximum absorbance in difference spectrum [1]	wavelength of minimum absorbance in difference spectrum [1]	absorbance reading at 413 nm using 432 nm as reference wavelength [2]	Ki [3]	magnitude of the type II difference spectrum signal ([1]; comparison among inhibitors studied)
OC(Cn1cncn1)(Cn1cncn1)c1ccc(F)cc1F [Compound 2, Fluconazole]	432 nm	413 nm	–	–	–
Clc1ccccc1C(c1ccccc1)(c1ccccc1)n1ccnc1 [Compound 4, Clotrimazole]	432 nm	413 nm	–	–	–
Nc1nc[nH]n1 [Compound 10, 3-amino-1,2,4-triazole]	–	–	negative result	> 10 µM	–
CC(=O)N1CCN(c2ccc(OCC3COC(Cn4ccnc4)(c4ccc(Cl)cc4Cl)O3)cc2)CC1 (stereo not drawn) [Ketoconazole]	432 nm	413 nm	–	–	maximum magnitude of the signal
